Experimental data from patent US8927227B2, “Method of measuring effects of components on cell reactive oxygen species production” (Colgate-Palmolive Company, priority 2008, dated 2015).

System: Human histocytic lymphoma U937 cells
Experiment: Intracellular ROS fluorescence assay (DCF-DA / DHR123) in U937 cells exposed to H2O2 and LPS
Format: cell-based
Description: Human histocytic lymphoma U937 cells (ATCC, Manassas, Va.) were initially cultured in RPMI-1640 media (ATCC, Manassas, Va.) containing 10% serum and 1% penicillin, and then transferred at a concentration of 2×10^5 cells/ml into media containing 1 ng/ml PMA for 48 hours at 37° C. The cells were starved overnight in serum-free culture media before exposure to dye.
Cells were washed with PBS buffer twice, and divided into two sets to be incubated with DCF-DA or DHR123 (Calibochem, La Jolla, Calif.) for 30 minutes at 30° C. Cells are washed with PBS twice to remove residual dye. Appropriate experimental controls are also maintained.
Cells are then divided into several groups, and various amounts of a 1% solution of α-tocopherol (Vitamin E), substance 1, or substance 2 is added to each of the groups, and incubated at 37° C. for 15 minutes. Cells then were washed twice with PBS to remove residual amounts of test compounds. ROS agents H2O2 and LPS then were added and incubated for different periods of time. Fluorescence of the cells then were read at excitation 485 nm and emission 530 nm for up to 5 hours.

In the case of `Cc1c(C)c2c(c(C)c1O)CC[C@@](C)(CCC[C@H](C)CCC[C@H](C)CCCC(C)C)O2` [α-tocopherol], the “reduction of oxidative level” value (2 ppm active, 2.5 mM hydrogen peroxide, FIG. 2) was “approximately 30%”, the “capability in scavenging ROS or free radicals” value (10 ppm and 100 ppm active compared with 2 ppm, 2.5 mM hydrogen peroxide, FIG. 2) was “did not show enhanced capability in scavenging ROS or free radicals” and the “cell fluorescence versus cells incubated without test compound” value (two hours of incubation, ROS at 2.5 mM and ROS stimulant, FIG. 1) was “cells incubated in the absence of a test compound but in the presence of the ROS at 2.5 mM and ROS stimulant fluoresce greater”.
